Results from patent US10463592B2, “Peptide with anti-aging effect and use thereof” (Osaka University, priority 2013, dated 2019).

Key:
[1] = tested on: Normal human dermal fibroblasts (NHDF); experiment: Fibroblast growth-promoting activity, Cell Counting Kit (WST-1); format: cell-based; details: for Fibroblast growth (% of control): NHDF, 2 days culture, WST-1
Method: The fibroblast growth-promoting activity of the peptides was determined using Cell Counting Kit (WST-1) (Dojindo Laboratories). As a control, a group containing no peptide was used. Normal human dermal fibroblasts (from newborns) (Kurabo Industries Ltd., hereinafter called NHDF) were seeded in 96-well plates (0.5×10^4 cells/100 μL per well). The culture medium used was Medium 106 (containing 1% FBS without growth supplements). About 3 hours after cell seeding, 100 μL of a solution of each peptide in the culture medium was added to a final peptide concentration of 0.3, 1, 3, 10, or 30 μM. To control wells, 100 μL of the culture medium alone was added. To blank wells containing no cells, 200 μL of the culture medium alone was added. The cells were cultured in a CO2 incubator for 2 days. After the culture, 20 μL of the WST-1 reagent was added to each well and the plates were allowed to stand in a CO2 incubator for about 2 to 4 hours. The absorbance at 450 nm and 620 nm was determined with a microplate reader (Wallac 1420 ARVOsx (program: WST-1)), and the measured values were corrected by the equation: OD450-OD620. The net OD450 was calculated by subtracting the mean OD450-OD620 of the blank wells from the OD450-OD620 of the test wells. The percent fibroblast growth was calculated as the ratio (%) of the net OD450 of each peptide addition group to that of the control group. The effect of promoting fibroblast growth was evaluated on the basis of the percent fibroblast growth.
The examination was conducted in the same manner as in Example 2 except that the concentration of each peptide was set at 3, 10, 30, 100 or 300 μM.

NHDF (NB) cells = experiment: Hyaluronic acid production by fibroblasts, ELISA; format: cell-based, human; details: for Hyaluronic acid production (% of control): highest value over 3, 10, 30, 100 and 300 μM, 5 days
Method: The amount of the hyaluronic acid production by fibroblasts was determined by ELISA. As a control, a group containing no peptide was used. NHDF (NB) cells were seeded in 24-well plates and cultured overnight (2×10^4 cells/500 μL per well). The culture medium used was Medium 106 (containing 1% FBS without growth supplements). Twenty hours after cell seeding, 500 μL of a solution of each peptide in the culture medium was added to each well to a final peptide concentration of 3, 10, 30, 100 or 300 μM. To control wells, 500 μL of the culture medium alone was added. The cells were cultured in a 5% CO2 incubator at 37° C. for 5 days. After the culture, the culture supernatant was transferred into a 1.5-mL tube and centrifuged at 15,000 rpm at 4° C. for 5 minutes, and the supernatant was harvested in a fresh tube. The amount of hyaluronic acid in the culture supernatant was determined using QnE Hyaluronic Acid (HA) ELISA Assay (Biotech Trading Partners) in accordance with the kit protocol. The percent hyaluronic acid production was calculated as the ratio (%) of the ELISA absorbance of each peptide addition group to that of the control group. The effect of promoting hyaluronic acid production was evaluated on the basis of the percent hyaluronic acid production.
The examination was conducted in the same manner as in Example 4 except that the percent hyaluronic acid production was determined as follows: the amount of hyaluronic acid was quantified from the ELISA calibration curve and the quantified value was used to calculate the ratio (%) of the amount of the hyaluronic acid production of each peptide addition group to that of the control group.

[2] = highest value over 0.3, 1, 3, 10 and 30 μM
[3] = ratio of ELISA absorbance (Example 4)
[4] = at concentrations of 0.3 to 30 μM (Example 2)
[5] = amount quantified from ELISA calibration curve (Example 5)
[6] = Example 5, 3 to 300 μM, ELISA calibration curve
[7] = at concentrations of 30 to 300 μM (Example 3)
[8] = highest value over 3, 10, 30, 100 and 300 μM
[9] = Example 4, 3 to 300 μM, ELISA absorbance ratio

| Substance | Fibroblast growth (% of control) [1, 2] | Hyaluronic acid production (% of control) (NHDF (NB) cells; [3]) | effect of promoting fibroblast growth [1, 4] | Hyaluronic acid production (% of control) (NHDF (NB) cells; [5]) | increase of hyaluronic acid production by fibroblasts (NHDF (NB) cells; [6]) | effect of promoting fibroblast growth [1, 7] | Fibroblast growth (% of control) [1, 8] | increase of hyaluronic acid production by fibroblasts (NHDF (NB) cells; [9]) |
| --- | --- | --- | --- | --- | --- | --- | --- | --- |
| FLHRL (Ac-FLHRL-NH2) [OSK-7] | 96.8 % of control | 75.2 % of control | – | – | – | – | – | – |
| KRLRK (Ac-KRLRK-NH2) [OSK-12] | 100.3 % of control | 72.0 % of control | exhibited the effect of promoting fibroblast growth | – | – | – | – | – |
| LKLIF (Ac-LKLIF-NH2) [OSK-3] | 104.7 % of control | 79.9 % of control | exhibited the effect of promoting fibroblast growth | – | – | – | – | – |
| HRLKR [OSK-20] | – | – | – | 94.0 % of control | – | – | – | – |
| RLKR [OSK-18] (Ac-RLKR-NH2) | – | – | – | 131.9 % of control | increased the amount of the hyaluronic acid production by fibroblasts | – | – | – |
| RLKRL [OSK-21] | – | – | – | 109.3 % of control | increased the amount of the hyaluronic acid production by fibroblasts | – | – | – |
| RLKRL [OSK-10] | 116.2 % of control | 198.2 % of control | exhibited the effect of promoting fibroblast growth | 409.1 % of control | increased the amount of the hyaluronic acid production by fibroblasts | exhibited the effect of promoting fibroblast growth | 149.9 % of control | increased the amount of the hyaluronic acid production by fibroblasts |
| RKRLK (Ac-RKRLK-NH2) [OSK-15] | 102.9 % of control | 103.9 % of control | exhibited the effect of promoting fibroblast growth | – | – | – | – | increased the amount of the hyaluronic acid production by fibroblasts |
| KRLKR (Ac-KRLKR-NH2) [OSK-16] | 106.1 % of control | 110.6 % of control | exhibited the effect of promoting fibroblast growth | – | – | – | – | increased the amount of the hyaluronic acid production by fibroblasts |
| LHRLK (Ac-LHRLK-NH2) [OSK-8] | 98.8 % of control | 110.5 % of control | – | – | – | – | – | increased the amount of the hyaluronic acid production by fibroblasts |
| LKR [OSK-19] (Ac-Leu-Lys-Arg-NH2) | – | – | – | 117.6 % of control | increased the amount of the hyaluronic acid production by fibroblasts | – | – | – |
| LRKRL (Ac-LRKRL-NH2) [OSK-14] | 106.8 % of control | 123.6 % of control | exhibited the effect of promoting fibroblast growth | – | – | – | – | increased the amount of the hyaluronic acid production by fibroblasts |
| RLRKR (Ac-RLRKR-NH2) [OSK-13] | 99.3 % of control | 74.3 % of control | – | – | – | – | – | – |
| LKR [OSK-23] | – | – | – | 113.7 % of control | increased the amount of the hyaluronic acid production by fibroblasts | – | – | – |
| LIFLH (Ac-LIFLH-NH2) [OSK-5] | 97.6 % of control | 65.6 % of control | – | – | – | – | – | – |
| ELKLIFLHRLKRLRKRLKRK (Ac-ELKLIFLHRLKRLRKRLKRK-NH2) [OSK-1] | 146.4 % of control | – | exhibited the effect of promoting fibroblast growth | 2715.8 % of control | increased the amount of the hyaluronic acid production by fibroblasts | exhibited the effect of promoting fibroblast growth | 144.9 % of control | – |
| RLKRK (Ac-RLKRK-NH2) [OSK-17] | 104.2 % of control | 81.8 % of control | exhibited the effect of promoting fibroblast growth | – | – | – | – | – |
| LKRLR [OSK-11] | 112.5 % of control | 112.1 % of control | exhibited the effect of promoting fibroblast growth | 255.0 % of control | increased the amount of the hyaluronic acid production by fibroblasts | exhibited the effect of promoting fibroblast growth | 158.5 % of control | increased the amount of the hyaluronic acid production by fibroblasts |
| KLIFL (Ac-KLIFL-NH2) [OSK-4] | 102.6 % of control | 212.4 % of control | exhibited the effect of promoting fibroblast growth | – | – | – | – | increased the amount of the hyaluronic acid production by fibroblasts |
| ELKLI (Ac-ELKLI-NH2) [OSK-2] | 99.7 % of control | 184.0 % of control | – | – | – | – | – | increased the amount of the hyaluronic acid production by fibroblasts |
| RLKR [OSK-22] | – | – | – | 101.1 % of control | increased the amount of the hyaluronic acid production by fibroblasts | – | – | – |
